# Like-named read-outs stand apart in the source and are kept apart here.
# Assays:
# [1] = Cytotoxicity assay (MTT), normal murine spleen cells stimulated with concanavalin A; format: cell-based; conditions: normal murine spleen cells stimulated with concanavalin A; normal mouse spleen stimulated with concanavalin A inhibited by 50%; read-out: Mean CC50 (Normal Mouse Spleen) ± SEM (no. of expts)
# Procedure: (§1) Normal murine spleen cells were washed in HBSS, cultured at 2.5×10^6 or 5×10^6 cells per mL in RPMI 1640 (with Hepes) complete medium with 2 mM-L-glutamine, 1 mM sodium pyruvate, 0.05 mM β-mercaptoethanol, penicillin, streptomycin, and amphotericin B with 10% fetal calf serum and Concanavalin A (ConA) at 2.5 μg/mL in a 96-well microtiter plate. A range of diluted analogs were added to triplicate culture wells and the cells were incubated at 37° C. in 5% CO2. Wells containing cells, media and ConA were used as controls. Forty-eight hours post incubation, 20 μL of the vital dye MTT (3-[4,5-Dimethylthiazol-2-yl]-2,5-diphenyltetrazolium bromide; thiazolyl blue) at 5 mg/mL was added to each well and the cultures re-incubated for 4-6 hours. Following centrifugation, the supernatants were decanted and the stained cells were resuspended in 100 μL of 0.4% HCl acidified isopropanol. The optical densities of each well were read at 600 nm using a Cambridge Technologies series 700 microplate reader. The human lymphocytic cell lines CCRF-CEM (ATCC: HTB 176) and H-9 (ATCC: CCL 119) were subcultured from recently cultured cells grown in complete RPMI 1640 medium as described above but without the β-mercaptoethanol and ConA at 6.25×10^5 and 2×10^6 per mL in a 96 well culture plate. These cell numbers represented log phase and early stationary phase of the freshly cultured cells. As these cell lines rapidly reproduce without mitogenic stimulation, Con A was not used. A range of analogues or media alone was added in triplicate to the cultures and the cultures incubated, pulsed with MTT, harvested and their growth estimated as described above for the murine cultures. The CC50 or the concentration of drug which inhibited cell growth as estimated by MTT formazan production to 50% of that of untreated control cells was determined by linear interpolation for each lavendamycin analog.
# [2] = Cytotoxicity assay (MTT), human lymphocytic cell lines, pooled data; format: cell-based; conditions: human lymphocytic cell lines CCRF-CEM and H-9, pooled data, H-9 and CEM inhibited by 50%, read-out: Mean CC50 (Human Cell Lines) ± SEM (no. of expts)
# Procedure: as §1
# HIV-RT = biological target: T1, HIV-RT (Human immunodeficiency virus type 1 group M subtype B, UniProt P04585); assay: Checkerboard combination of lavendamycin analogs with AZT-triphosphate in HIV-RT enzyme assay (Chou and Talalay); format: biochemical
# T1 construct: 1 unit/mL of HIV-RT (Worthington Biochemical Corp., Freehold, N.J.); purchased Worthington Biochemical Corp., Freehold, N.J
# Procedure: The results were analyzed by the method of Chou and Talalay based on the median-effect principle and represented by combination indices (CI) determined for each of the two drug combinations (e.g., see: Chou, T. C.; Talalay, P. “Quantitative Analysis of Dose-Effect Relationships: The Combined Effects of Multiple Drugs or Enzyme Inhibitors,” Adv. Enzyme Regul., 1984, 22, 27-65; and Chou, J.; Chou, T. C. “Dose-Effect Analysis with Microcomputers: Quantitation of ED50, LD50, Synergism, Antagonism, Low-Dose Risk, Receptor-Ligand Binding and Enzyme Kinetics,” In: A computer Software for IBM-PC and Manual, Cambridge, UK, Elsevier-Biosoft, 1987). This method involves the plotting of dose-effect curves for each agent and for each of the different combinations of the agents. The slope of the median-effect plot, which signifies the shape of the dose-effect curve, and the x intercept of the plot, which signifies the potency of each compound alone and each combination, were then used for a computerized calculation of a combination index.
# The assay procedure described below is adapted from Okada et al. (Okada, H.; Mukai, H.; Inouye, Y; Nakamura, S. “Biological Properties of Streptonigrin Derivatives II. Inhibition of Reverse Transcriptase Activity,” J. Antibiot., 1986, 39, 306-308). The lavendamycin analogs were initially dissolved in DMSO at a concentration of 1 mg/mL. Occasionally, mild sonication and heat were used to dissolve the less soluble compounds. The dissolved analogs were then serially diluted in distilled water to achieve concentrations in the final reaction mixture ranging from 0.5-15 μM. In addition to the lavendamycin analogs, the final reaction mixture contained 100 mM Tris-HCl (pH 8.0), 5 mM MgCl2, 5 mM dithiothreitol, 60 mM NaCl, 0.2 mM [^3H] thymidine triphosphate(5 μCi well), 4 μg/mL poly (rA)-oligo(dT)12-18 (Amersham Pharmacia Biotech, Piscataway, N.J.) and 1 unit/mL of HIV-RT (Worthington Biochemical Corp., Freehold, N.J.) in a total volume of 300 μL. For each assay, the reaction mixture containing 8× buffer, double distilled H2O, ^3HTTP, template-primer and HIV-RT was pre-mixed in a 15-mL sterile tube in quantities required for the particular experiment. After adding the enzyme, the reaction mixture was mixed and kept on ice. The inhibitors, either AZT(Moravek Biochemicals, Brea, Calif.), analogs or both were added to appropriate wells in a 24 well microtiter plate and ddH2O was added to each well to bring the volume of all test wells to 100 μL. Two hundred μL of the chilled reaction mixture was then added to each of the test wells, mixed, and incubated for 1 hr at 37° C. Several control wells with no inhibitors were included on each test plate. After stopping the reactions with 25 μL 0.1 M EDTA, triplicate samples of 15 μL from each test well were spotted on DE81 ion exchange filter paper squares (Whatman Paper, Maidstone, England). After drying, each filter was washed for 10 minutes three times with 5% TCA-NHPO4, three times with 0.6M NaCl-[…] Na Citrate, one time with ddH2O and one time with 95% ethanol. After drying the individual filter papers were added to 5 mL Scintiverse E (Fisher Scientific, Chicago, Ill.) scintillation fluid and the amount of 3H-TTP uptake measured as counts per minute on a Beckman liquid scintillation counter. […] The results were then analyzed using Calcusyn, a windows software program for dose effect analysis designed by T. -C. Chou and M. P. Hayball and published by Biosoft® (UK).
structure (smiles),measurement,setting,value
"CC(=O)NC1=CC(=O)c2ccc(-c3nc(C(=O)O)cc4c3[nH]c3ccccc34)nc2C1=O [Compound 18, 7-N-Acetyldemethyllavendamycin]",CC50 at 48 h,[1],47 ± 8.5 µM
same,CC50 at 48 h,[2],81 ± 35 µM
same,Combination index,HIV-RT,0.66
same,Combination index,"HIV-RT; analogue 0.25 μM + AZT 0.007 μM, Trial 1",0.39
same,Combination index,"HIV-RT; analogue 0.25 μM + AZT 0.007 μM, Trial 2",0.37
same,Combination index,"HIV-RT; analogue 0.25 μM + AZT 0.01 μM, Trial 1",0.44
same,Combination index,"HIV-RT; analogue 0.25 μM + AZT 0.01 μM, Trial 2",0.45
same,Combination index,"HIV-RT; analogue 0.25 μM + AZT 0.02 μM, Trial 1",0.59
same,Combination index,"HIV-RT; analogue 0.25 μM + AZT 0.02 μM, Trial 2",0.60
same,Combination index,"HIV-RT; analogue 0.5 μM + AZT 0.007 μM, Trial 1",0.40
same,Combination index,"HIV-RT; analogue 0.5 μM + AZT 0.007 μM, Trial 2",0.42
same,Combination index,"HIV-RT; analogue 0.5 μM + AZT 0.01 μM, Trial 1",0.51
same,Combination index,"HIV-RT; analogue 0.5 μM + AZT 0.01 μM, Trial 2",0.50
same,Combination index,"HIV-RT; analogue 0.5 μM + AZT 0.02 μM, Trial 1",0.97
same,Combination index,"HIV-RT; analogue 0.5 μM + AZT 0.02 μM, Trial 2",0.98
same,Combination index,"HIV-RT; analogue 0.75 μM + AZT 0.01 μM, Trial 1",0.59
same,Combination index,"HIV-RT; analogue 0.75 μM + AZT 0.01 μM, Trial 2",0.57
same,Combination index,"HIV-RT; analogue 0.75 μM + AZT 0.02 μM, Trial 1",0.95
same,Combination index,"HIV-RT; analogue 0.75 μM + AZT 0.02 μM, Trial 2",0.97
same,Combination index,"HIV-RT; analogue 1.5 μM + AZT 0.007 μM, Trial 1",1.00
same,Combination index,"HIV-RT; analogue 1.5 μM + AZT 0.007 μM, Trial 2",0.94
same,Combination index,"HIV-RT; analogue 1.5 μM + AZT 0.01 μM, Trial 1",0.90
same,Combination index,"HIV-RT; analogue 1.5 μM + AZT 0.01 μM, Trial 2",0.82
same,Combination index,"HIV-RT; analogue 1.5 μM + AZT 0.02 μM, Trial 1",2.00
same,Combination index,"HIV-RT; analogue 1.5 μM + AZT 0.02 μM, Trial 2",2.20
same,combined effect with AZT-TP,HIV-RT; analogue 1.5 μM together with AZT-TP 0.02 μM,antagonism
